According to ChEMBL document CHEMBL1157862, “Synthesis and pharmacological evaluation of novel fused thiophene derivatives as 5-HT2A receptor antagonists: molecular modeling study” (Eur J Med Chem, 2010):

Target: 5-hydroxytryptamine receptor 2A (Rattus norvegicus) (UniProt P14842)
Experiment: Antagonist activity at 5HT2A receptor in Sprague-Dawley rat assessed as inhibition of 5HT-induced pulmonary arterial pressure at 100 uM relative to 5HT
Format: functional

Sequence of 5-hydroxytryptamine receptor 2A (Rattus norvegicus) (P14842 whole entry): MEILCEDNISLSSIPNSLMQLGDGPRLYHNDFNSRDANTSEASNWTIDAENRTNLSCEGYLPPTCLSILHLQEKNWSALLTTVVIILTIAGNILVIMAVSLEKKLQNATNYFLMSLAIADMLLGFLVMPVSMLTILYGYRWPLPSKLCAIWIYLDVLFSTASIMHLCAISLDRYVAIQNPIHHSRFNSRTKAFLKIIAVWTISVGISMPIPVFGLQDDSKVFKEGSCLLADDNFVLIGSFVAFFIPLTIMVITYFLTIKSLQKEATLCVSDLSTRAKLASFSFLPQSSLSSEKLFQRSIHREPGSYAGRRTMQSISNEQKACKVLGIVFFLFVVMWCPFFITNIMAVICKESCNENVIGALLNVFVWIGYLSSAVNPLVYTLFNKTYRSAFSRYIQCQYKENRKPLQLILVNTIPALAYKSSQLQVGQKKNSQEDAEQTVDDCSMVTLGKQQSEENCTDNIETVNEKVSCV

| inhibition | Structure (SMILES) |
| --- | --- |
| 60% | CN1CCc2c(sc3[nH]c(=O)n(CCN4CCN(c5ccccc5)CC4)c(=O)c23)C1 |
| 65% | COc1ccccc1N1CCN(CCn2c(=O)[nH]c3sc4c(c3c2=O)CCN(C)C4)CC1 |

Second part, the compound before the results:

| Structure (SMILES) | inhibition |
| --- | --- |
| CCOC(=O)c1c(NC(=O)CN2CCN(c3ccccc3OCC)CC2)sc2c1CCN(C)C2 | 65% |
| O=c1[nH]c2sc3c(c2c(=O)n1CCN1CCN(c2ccccc2)CC1)CCC3 | 86% |
| CCOC(=O)c1c(NC(=O)CN2CCN(c3ccccc3)CC2)sc2c1CCN(C)C2 | 62% |
| CN1CCc2c(sc3[nH]c(=O)n(CCN4CCN(c5ccc(F)cc5)CC4)c(=O)c23)C1 | 63% |
| CCOC(=O)c1c(NC(=O)CN2CCN(c3ccccc3OC)CC2)sc2c1CCN(C)C2 | 88% |
